Values after ≈ are worked out from the molar mass of the structure shown. Values joined by “and” are separate entries in the source; they are usually repeats but may differ in a detail not shown here. Identical values can stand only once.
Tested on: Escherichia coli ATCC 25922
Assay: ≥ marks a high value that may be exact or a test limit, other limits are often not marked, values filed in µg/mL are converted to µM

Row | SMILES | MIC
1 | CC(C)C[C@H](NC(=O)[C@H](Cc1ccccc1)NC(=O)[C@@H]1CCCN1C(=O)[C@H](C)NC(=O)[C@H](Cc1c[nH]c2ccccc12)NC(=O)[C@H](Cc1c[nH]c2ccccc12)NC(=O)[C@@H]1CCCN1C(=O)[C@H](Cc1ccccc1)NC(=O)[C@H](CCCN=C(N)N)NC(=O)[C@H](CCCN=C(N)N)NC(=O)[C@@H](N)C(C)C)C(=O)N[C@@H](CCCN=C(N)N)C(=O)N[C@@H](CCCN=C(N)N)C(N)=O [VRRFPWWAPFLRR] | 8 µM (≈ 14.3 µg/mL)
2 | CC[C@H](C)[C@H](NC(=O)[C@H](CCCCN)NC(=O)[C@H](CCCCN)NC(=O)[C@@H](NC(=O)[C@@H](NC(=O)[C@H](CCCCN)NC(=O)[C@H](Cc1ccccc1)NC(=O)[C@H](CC(C)C)NC(=O)CN)[C@@H](C)CC)[C@@H](C)CC)C(=O)N[C@@H](C)C(=O)N[C@@H](CCCCN)C(=O)N[C@@H](CO)C(=O)N[C@@H](Cc1ccccc1)C(N)=O [GLFKIIKKIAKSF] | 16.7 µM and 33.5 µM
3 | CC[C@H](C)[C@H](NC(=O)CNC(=O)[C@H](C)NC(=O)[C@@H](NC(=O)[C@H](CC(N)=O)NC(=O)[C@H](CCCCN)NC(=O)[C@H](C)NC(=O)[C@H](C)NC(=O)CNC(=O)[C@H](CCCCN)NC(=O)[C@@H](NC(=O)[C@@H](NC(=O)[C@H](CC(=O)O)NC(=O)[C@H](CC(C)C)NC(=O)[C@H](CC(C)C)NC(=O)[C@H](CC(C)C)NC(=O)CN)[C@@H](C)O)C(C)C)C(C)C)C(=O)N[C@@H](CC(C)C)C(=O)N[C@@H](CC(C)C)C(=O)N[C@@H](CC(N)=O)C(=O)N[C@@H](CCCCN)C(=O)N[C@@H](CC(C)C)C(=O)N[C@@H](CCCCN)C(=O)N[C@H]1CSSC[C@@H](C(=O)O)NC(=O)[C@H](CC(=O)O)NC(=O)CNC(=O)[C@H]([C@@H](C)O)NC(=O)[C@H](CCSC)NC(=O)[C@H](CCCCN)NC1=O [GLLLDTVKGAAKNVAGILLNKLKCKMTGDC] | 4.05 µM (≈ 12.5 µg/mL)
4 | CSCC[C@H](NC(=O)[C@H](CCCN=C(N)N)NC(=O)[C@H](Cc1c[nH]c2ccccc12)NC(=O)[C@H](CCC(N)=O)NC(=O)[C@H](Cc1c[nH]c2ccccc12)NC(=O)[C@H](CCCN=C(N)N)NC(=O)[C@@H](N)CCCN=C(N)N)C(=O)N[C@@H](CCCCN)C(=O)N[C@@H](CCCCN)C(=O)O [RRWQWRMKK] | 186 µM (≈ 256 µg/mL)
5 | CC(C)C[C@H](NC(=O)[C@H](Cc1ccccc1)NC(=O)[C@@H]1CCCN1C(=O)[C@H](Cc1c[nH]c2ccccc12)NC(=O)[C@H](Cc1c[nH]c2ccccc12)NC(=O)[C@H](Cc1c[nH]c2ccccc12)NC(=O)[C@H](C)NC(=O)[C@H](Cc1ccccc1)NC(=O)[C@H](CCCCN)NC(=O)[C@H](CCCCN)NC(=O)[C@@H](N)C(C)C)C(=O)N[C@@H](CCCCN)C(=O)N[C@@H](CCCCN)C(N)=O [VKKFAWWWPFLKK] | 32 µM (≈ 56.4 µg/mL)
6 | CC[C@H](C)[C@H](NC(=O)[C@@H](NC(=O)[C@H](CC(=O)O)NC(=O)[C@H](CC(C)C)NC(=O)[C@H](CC(C)C)NC(=O)[C@H](CCC(N)=O)NC(=O)CNC(=O)[C@H](C)NC(=O)[C@H](CC(C)C)NC(=O)[C@H](CC(N)=O)NC(=O)[C@H](CCCCN)NC(=O)[C@H](C)NC(=O)[C@H](C)NC(=O)[C@H](CC(N)=O)NC(=O)[C@H](CCCCN)NC(=O)[C@@H](NC(=O)[C@@H](NC(=O)[C@H](CC(=O)O)NC(=O)[C@H](CCSC)NC(=O)[C@H](CC(C)C)NC(=O)CN)[C@@H](C)O)C(C)C)[C@@H](C)O)C(=O)N[C@@H](CCCCN)C(=O)N[C@H]1CSSC[C@@H](C(=O)O)NC(=O)CNC(=O)[C@H]([C@@H](C)O)NC(=O)[C@H](CCSC)NC(=O)[C@H](CCCCN)NC1=O [GLMDTVKNAAKNLAGQLLDTIKCKMTGC] | 30 µM (≈ 88.1 µg/mL)

Reference: DBAASP
